From US8178506B2, “Oligomeric compounds and compositions for use in modulation of small non-coding RNAs” (Regulus Therapeutics Inc., priority 2003, dated 2012)
In the oligonucleotide strings, read from the 5' end, every base follows the letter of its sugar. An asterisk marks phosphorothioate; unmarked linkages are phosphodiester. Other units and linkages are bracketed, terminal groups are in braces. A string of capitals states the bases alone. e = 2'-O-(2-methoxyethyl) (MOE); [5mC] = 5-methylcytosine

System: mir-21 miRNA
Assay: pGL3-mir-21 sensor luciferase assay in HeLa cells
Format: cell-based, human
Summary of the method: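 HeLa cells were transiently transfected with pGL3-Control carrying a mir-21-complementary site in the luciferase 3′UTR, which endogenous mir-21 silences. 2′-MOE oligomeric compounds were given at 10 or 50 nM, or at 1.9, 5.5, 16.7 and 50 nM for dose response. Luciferase was normalized to pRL-CMV and expressed as percent of the plasmid-only untreated control.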

[1] = Table 44, pGL3-mir-21 sensor-expressing HeLa cells, 10 nM
[2] = Table 44, pGL3-mir-21 sensor-expressing HeLa cells, 50 nM

Substance	luciferase expression % UTC [1]	luciferase expression % UTC [2]	luciferase expression % UTC (Table 50, pGL3-mir-21 sensor-expressing HeLa cells, 1.9 nM, normalized to pRL-CMV)	luciferase expression % UTC (Table 50, pGL3-mir-21 sensor-expressing HeLa cells, 5.5 nM, normalized to pRL-CMV)	luciferase expression % UTC (Table 50, pGL3-mir-21 sensor-expressing HeLa cells, 16.7 nM, normalized to pRL-CMV)	luciferase expression % UTC (Table 50, pGL3-mir-21 sensor-expressing HeLa cells, 50 nM, normalized to pRL-CMV)
327901 (antisense eT*eG*eA*eG*e[5mC]*eT*eA*e[5mC]*eA*eG*eT*eG*e[5mC]*eT*eT*e[5mC]*eA*eT*e[5mC]*eT*e[5mC]*eA) [compound 327901]	74.2 % UTC	83.1 % UTC	–	–	–	–
327917 (antisense eT*e[5mC]*eA*eA*e[5mC]*eA*eT*e[5mC]*eA*eG*eT*e[5mC]*eT*eG*eA*eT*eA*eA*eG*e[5mC]*eT*eA) [compound 327917]	1037.6 % UTC	847.5 % UTC	522 % UTC	1293 % UTC	2470 % UTC	4534 % UTC
